Assay results published in publication PMC6225228, “Design, Synthesis and Evaluation of N-pyrazinylbenzamides as Potential Antimycobacterial Agents” (Molecules : A Journal of Synthetic Chemistry and Natural …, 2018).
In brackets after ≈: the same amount, converted by molar mass. Read-outs that look alike come from different tables or passages of the source.

Legend:
[1] = tested on: Staphylococcus epidermidis H 6966/08; assay: Antibacterial microdilution broth, SE; type: cell-based; conditions: Staphylococcus epidermidis, read-out: MIC SE
[2] = tested on: Staphylococcus aureus CCM 4516/08; assay: Antibacterial microdilution broth, SA; type: cell-based; conditions: Staphylococcus aureus
[3] = tested on: Mycobacterium tuberculosis H37Rv CNCTC My 331/88 (ATCC 27294); assay: Antimycobacterial microdilution MABA, M. tuberculosis; type: cell-based; conditions: for MIC: Mycobacterium tuberculosis, read-out: Mtb H37Rv ATCC 27294 MIC, Middlebrook 7H9 with OADC growth supplement, pH = 6.6, MABA
[4] = tested on: Trichophyton interdigitale 445; assay: Antifungal microdilution broth, TI; type: cell-based; conditions: read-out: MIC TI
[5] = tested on: Enterococcus sp. J 14365/08; assay: Antibacterial microdilution broth, EF; type: cell-based; conditions: Enterococcus, read-out: MIC EF
[6] = tested on: Mycobacterium smegmatis CCM 4622 (ATCC 607); assay: Antimycobacterial microdilution, M. smegmatis; type: cell-based; conditions: Mycolicibacterium smegmatis, read-out: M. smeg. ATCC 607 MIC
Trichosporon asahii 1188 = assay: Antifungal microdilution broth, TA; type: cell-based; conditions: read-out: MIC TA
[7] = tested on: Lichtheimia corymbifera 272; assay: Antifungal microdilution broth, LC; type: cell-based; conditions: read-out: MIC LC
[8] = tested on: M. avium ssp. avium CNCTC My 80/72 (ATCC 15769); assay: Antimycobacterial microdilution MABA, M. avium; type: cell-based, Mycobacterium avium; conditions: for MIC: Mycobacterium avium, ATCC15769, pH 6.6, read-out: M. avium ATCC 15769 MIC; for M. avium ATCC 15769 MIC: Middlebrook 7H9 with OADC, pH 6.6, MABA
[9] = tested on: Aspergillus fumigatus 231; assay: Antifungal microdilution broth, AF; type: cell-based; conditions: read-out: MIC AF
[10] = tested on: Pseudomonas aeruginosa CCM 1961; assay: Antibacterial microdilution broth, PA; type: cell-based; conditions: Pseudomonas aeruginosa, read-out: MIC PA
[11] = tested on: Staphylococcus aureus H 5996/08 methicillin resistant; assay: microbe, parasite or virus in culture; type: cell-based; conditions: Staphylococcus aureus, MRSA, read-out: MIC MRSA
Candida tropicalis 156 = assay: Antifungal microdilution broth, CT; type: cell-based; conditions: read-out: MIC CT
[12] = tested on: M. kansasii CNCTC My 235/80 (ATCC 12478); assay: Antimycobacterial microdilution MABA, M. kansasii; type: cell-based, Mycobacterium kansasii; conditions: for MIC: Mycobacterium kansasii, ATCC12478, pH 6.6, read-out: M. kans. ATCC 12478 MIC, Middlebrook 7H9 with OADC, pH 6.6, MABA
[13] = tested on: Escherichia coli CCM 4517; assay: Antibacterial microdilution broth, EC; type: cell-based; conditions: Escherichia coli, read-out: MIC EC
Candida glabrata 20/I = assay: Antifungal microdilution broth, CG; type: cell-based; conditions: Nakaseomyces glabratus, 20/I, read-out: MIC CG
Candida krusei E28 = assay: Antifungal microdilution broth, CK; type: cell-based; conditions: Pichia kudriavzevii, read-out: MIC CK
[14] = tested on: Candida albicans ATCC 44859; assay: Antifungal microdilution broth, CA; type: cell-based; conditions: Candida albicans, read-out: MIC CA
[15] = CCM4516, 24 h, read-out: MIC SA, 24 h
[16] = CCM4516, 48 h, read-out: MIC SA, 48 h
[17] = Trichophyton interdigitale, 445, 72 h
[18] = Trichophyton interdigitale, 445, 120 h
[19] = Trichosporon asahii, 1188, 24 h
[20] = Trichosporon asahii, 1188, 48 h
[21] = Lichtheimia corymbifera, 272, 24 h
[22] = Lichtheimia corymbifera, 272, 48 h
[23] = Aspergillus fumigatus, 231, 24 h
[24] = Aspergillus fumigatus, 231, 48 h

SMILES	MIC ([1]; H6966/08, 24 h) [µM]	MIC ([1]; H6966/08, 48 h) [µM]	MIC [2, 15] [µM]	MIC [2, 16] [µM]	MIC [3] [µg/mL]	MIC [4, 17] [µM]	MIC [4, 18] [µM]	MIC ([5]; SP.J14365/08, 24 h) [µM]	MIC ([5]; SP.J14365/08, 48 h) [µM]	melting point [°C]	MIC [6] [µg/mL]	MIC (Trichosporon asahii 1188; [19]) [µM]	MIC (Trichosporon asahii 1188; [20]) [µM]	MIC [7, 21] [µM]	MIC [7, 22] [µM]	MIC [8] [µg/mL]	MIC [9, 23] [µM]	MIC [9, 24] [µM]	MIC ([10]; CCM1961, 72 h) [µM]	MIC ([10]; CCM1961, 120 h) [µM]	further results
O=C(Nc1cnccn1)c1cccc(O)c1 [Compound 1c]	> 500	> 500	> 500	> 500	> 100	> 500	> 500	> 500	> 500	192.2 to 193.7	≥ 500	> 500	> 500	> 500	> 500	> 100	> 500	> 500	> 500	> 500	MIC ([11]; 24 h): > 500 µM; MIC ([11]; 48 h): > 500 µM; MIC (Candida tropicalis 156; Candida tropicalis, 156, 24 h): > 500 µM; MIC (Candida tropicalis 156; Candida tropicalis, 156, 48 h): > 500 µM; MIC [12]: > 100 µg/mL; MIC ([13]; CCM4517, 24 h): > 500 µM; MIC ([13]; CCM4517, 48 h): > 500 µM; MIC (Candida glabrata 20/I; 24 h): > 500 µM; MIC (Candida glabrata 20/I; 48 h): > 500 µM; MIC (Candida krusei E28; E28, 24 h): > 500 µM; MIC (Candida krusei E28; E28, 48 h): > 500 µM; MIC ([14]; ATCC44859, 24 h): > 500 µM; MIC ([14]; ATCC44859, 48 h): > 500 µM
O=C(Nc1cnccn1)c1ccc(Cl)cc1 [Compound 1l]	> 125	> 125	> 125	> 125	50 (≈ 214 µM)	> 125	> 125	> 125	> 125	182.6 to 184.3	≥ 500	> 125	> 125	> 125	> 125	> 100	> 125	> 125	> 125	> 125	M. avium ATCC 15769 MIC [8]: >100 µg/mL; MIC ([11]; 24 h): > 125 µM; MIC ([11]; 48 h): > 125 µM; MIC (Candida tropicalis 156; Candida tropicalis, 156, 24 h): > 125 µM; MIC (Candida tropicalis 156; Candida tropicalis, 156, 48 h): > 125 µM; MIC [12]: 50 µg/mL (≈ 214 µM); MIC ([13]; CCM4517, 24 h): > 125 µM; MIC ([13]; CCM4517, 48 h): > 125 µM; MIC (Candida glabrata 20/I; 24 h): > 125 µM; MIC (Candida glabrata 20/I; 48 h): > 125 µM; MIC (Candida krusei E28; E28, 24 h): > 125 µM; MIC (Candida krusei E28; E28, 48 h): > 125 µM; MIC ([14]; ATCC44859, 24 h): > 125 µM; MIC ([14]; ATCC44859, 48 h): > 125 µM
O=C(Nc1cnc(Cl)cn1)c1cccc(Cl)c1 [Compound 2k]	> 125	> 125	> 125	> 125	> 100	> 125	> 125	> 125	> 125	150.7 to 151.9	≥ 500	> 125	> 125	> 125	> 125	> 100	> 125	> 125	> 125	> 125	MIC ([2]; CCM4516, read-out: MIC against S. aureus, time not stated): > 125 µM; Mtb H37Rv ATCC 27294 MIC ([3]; Middlebrook 7H9 with OADC growth supplement, pH = 6.6, MABA): >100 µg/mL; MIC ([11]; 24 h): > 125 µM; MIC ([11]; 48 h): > 125 µM; MIC (Candida tropicalis 156; Candida tropicalis, 156, 24 h): > 125 µM; MIC (Candida tropicalis 156; Candida tropicalis, 156, 48 h): > 125 µM; MIC [12]: > 100 µg/mL; MIC ([13]; CCM4517, 24 h): > 125 µM; MIC ([13]; CCM4517, 48 h): > 125 µM; MIC (Candida glabrata 20/I; 24 h): > 125 µM; MIC (Candida glabrata 20/I; 48 h): > 125 µM; MIC (Candida krusei E28; E28, 24 h): > 125 µM; MIC (Candida krusei E28; E28, 48 h): > 125 µM; MIC ([14]; ATCC44859, 24 h): > 125 µM; MIC ([14]; ATCC44859, 48 h): > 125 µM
CC(=O)Oc1ccc(C(=O)Nc2cnccn2)cc1 [Compound 1d-Ac]	> 500	> 500	> 500	> 500	> 100	> 500	> 500	> 500	> 500	147.4 to 149.4	≥ 500	> 500	> 500	> 500	> 500	> 100	> 500	> 500	> 500	> 500	MIC ([11]; 24 h): > 500 µM; MIC ([11]; 48 h): > 500 µM; MIC (Candida tropicalis 156; Candida tropicalis, 156, 24 h): > 500 µM; MIC (Candida tropicalis 156; Candida tropicalis, 156, 48 h): > 500 µM; MIC [12]: > 100 µg/mL; MIC ([13]; CCM4517, 24 h): > 500 µM; MIC ([13]; CCM4517, 48 h): > 500 µM; MIC (Candida glabrata 20/I; 24 h): > 500 µM; MIC (Candida glabrata 20/I; 48 h): > 500 µM; MIC (Candida krusei E28; E28, 24 h): > 500 µM; MIC (Candida krusei E28; E28, 48 h): > 500 µM; MIC ([14]; ATCC44859, 24 h): > 500 µM; MIC ([14]; ATCC44859, 48 h): > 500 µM
O=C(Nc1cnccn1)c1ccccc1 [Compound 1a]	> 500	> 500	> 500	> 500	100 (≈ 502 µM)	> 500	> 500	> 500	> 500	171.2 to 172	≥ 500	> 500	> 500	> 500	> 500	> 100	> 500	> 500	> 500	> 500	M. avium ATCC 15769 MIC [8]: >100 µg/mL; MIC ([11]; 24 h): > 500 µM; MIC ([11]; 48 h): > 500 µM; MIC (Candida tropicalis 156; Candida tropicalis, 156, 24 h): > 500 µM; MIC (Candida tropicalis 156; Candida tropicalis, 156, 48 h): > 500 µM; M. kans. ATCC 12478 MIC ([12]; Middlebrook 7H9 with OADC, pH 6.6, MABA): >100 µg/mL; MIC [12]: > 100 µg/mL; MIC ([13]; CCM4517, 24 h): > 500 µM; MIC ([13]; CCM4517, 48 h): > 500 µM; MIC (Candida glabrata 20/I; 24 h): > 500 µM; MIC (Candida glabrata 20/I; 48 h): > 500 µM; MIC (Candida krusei E28; E28, 24 h): > 500 µM; MIC (Candida krusei E28; E28, 48 h): > 500 µM; MIC ([14]; ATCC44859, 24 h): 500 µM (≈ 99.6 µg/mL); MIC ([14]; ATCC44859, 48 h): > 500 µM
